Counter-ions that a name gives are not always drawn.
Tests used:
[1] = cited from earlier work
Fibroblast cells = assay: Cytotoxicity test, Alamar Blue reduction; assay type: cell-based; conditions: fibroblasts, 24 hours, relative to control cells
Protocol: Fibroblast cells (14th passage) were thawed and cultured in […] flasks with culture medium at 37° C., humidified atmosphere and 5% CO2. The cells were cultured with modified Eagle's medium supplemented with 10% fetal bovine serum, 1% L-glutamine and 0.1% penicillin-streptomycin-nystatin. At confluence of 70% (at passages 16-19) the cells were separated using incubation for 3 minutes with 1 ml trypsin A, the free cells were added to the culture medium and seeded in a 6 well plate.
When confluence of 70% was reached the medium was replaced by 2 ml of medium containing 10% v/v Alamar blue for 4 hours of incubation. Thereafter, two 100 μL samples were taken from each well and inserted to a 96 well plate. The plate was inserted for analysis at a spectrophotometer (Spectra max 340 PC384, Molecular Devices) at 570 and 600 nm.
Two experiments were carried out, at first each component of the bioadhesive were inserted separately to a test tube containing 4 ml medium and incubated for 24 hours and then that medium was added to the cells instead of the medium containing Alamar Blue. In the second experiment, the medium with Alamar Blue was replaced with 4 ml of fresh medium and 0.1 ml of bioadhesive was added to the medium and incubated for 24 hours followed by another reading using Alamar Blue.
The reduction of Alamar Blue's absorption was calculated using the manufacturer's protocol, namely Alamar Blue reduction=(ε600A^t570−ε570A^t600)/(ε570A^c600−ε600A^c570), wherein ε570 and ε600 are the molar extinction coefficients of oxidized Alamar Blue at 570 nm and 600 nm respectively, A^t and Ac are the absorbance of test and control respectively at 570 nm and 600 nm respectively, whereas the control is taken as the medium with Alamar blue but without any cells.

Compound | isoelectric points (pKa) [1] | cell viability (Fibroblast cells; aqueous drug solution 2% w/v) | cell viability (Fibroblast cells; aqueous drug solution 3% w/v)
CCCCN1CCCCC1C(=O)Nc1c(C)cccc1C (centres unmarked) [bupivacaine, Bupivacaine hydrochloride] | 8.1-8.4 | 67.6% | 58.8%
CC(C)Cc1ccc(C(C)C(=O)[O-])cc1.[Na+] (centres unmarked) [ibuprofen, Ibuprofen sodium salt] |  | 93.5% | 79.7%
